The results in this text go back to PubChem BioAssay (NCI).

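Grown in 96-well plates, cells were treated for 48 hours with each compound at five concentrations. Insufficient inhibition: endpoint recorded as highest concentration tested. At the GI50, growth is halved. TGI: total growth inhibition.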 A value given as a limit tells only on which side of the number the result lay.

Some test systems named below: PC-3 prostate; HOP-18 NSCLC; XF 498 CNS; SNB-78 CNS; KM20L2 colon; MDA-N; RXF-631 renal.
Common to all, as to assay: inhibition of tumour cell growth, NCI panel, 48 h

Take `CC[n+]1ccc2c(c1)C(=O)c1nccc3c1c-2nc1ccccc13`: in the experiment on PC-3 prostate, the GI50 was 1.81 µM and the TGI came out at 16.2 µM.

`COc1ccc(CNC(=O)COc2ccc(/C=N/Nc3nc4ccccc4s3)cc2)cc1`: in the experiment with PC-3 prostate, the GI50 was 3.35 µM and the TGI is greater than 100 µM.

As to `NNC(=O)c1cnn(-c2ccnc3c(C(F)(F)F)cccc23)c1N`, in the experiment on PC-3 prostate, the GI50 was greater than 100 µM and the TGI is greater than 100 µM.

Take `COc1cccc(-c2nn(-c3ccccc3)cc2-c2ccnc(NCCCNS(=O)(=O)c3cccc(F)c3)c2)c1`: in the experiment with PC-3 prostate, the GI50 was 2.97 µM and the TGI is greater than 100 µM.

`COc1ccccc1NC(=O)c1ccc(/C=C/C(=O)c2nccn2C)cc1`: in the experiment on PC-3 prostate, the GI50 is 0.628 µM and the TGI stood at 1.65 µM.

Consider `c1ccc(-c2nnc(-c3nn(-c4ccccc4)c4nc5ccccc5nc34)o2)cc1`, for which the TGI was greater than 100 µM in the experiment on HOP-18 NSCLC, 61 µM in the experiment with XF 498 CNS, greater than 100 µM with SNB-78 CNS and greater than 100 µM in the experiment with KM20L2 colon.

For `CC1=C(CCCOC(=O)NCCCl)C2=C(C)C3(CC3)[C@@](C)(O)C(=O)C2=C1`, in the experiment with PC-3 prostate, the GI50 was 4.01 µM and the TGI was greater than 100 µM.

For the molecule `CCCCCCCCCCCCOC1C(CNCC2OC3OC(C)(C)OC3C2NC(=O)Nc2ccc(C(=O)OCC)cc2)OC2OC(C)(C)OC21` (centres undefined), in the experiment on PC-3 prostate, the GI50 was 2.21 µM and the TGI is 4.39 µM.

`CN1CCN(Cc2ccc(NC(=O)c3cncc(C#Cc4cnc(N)c5ccccc45)c3)cc2C(F)(F)F)CC1`: in the experiment with PC-3 prostate, the GI50 is 0.442 µM and the TGI was found to be 1.36 µM.

Consider `O=C(N/N=C/c1cccc(O)c1O)N/N=C/c1cccc(O)c1O`, for which the TGI in the experiment with HOP-18 NSCLC was 67.1 µM; in the experiment with XF 498 CNS, greater than 100 µM; in the experiment with SNB-78 CNS it was greater than 100 µM; with KM20L2 colon, 95.2 µM.

With `CN=C1NC(=O)/C(=C/c2ccc3ncccc3c2)S1`, in the experiment with PC-3 prostate, the GI50 is 13.8 µM and the TGI is greater than 25 µM.

Regarding `O=C1NC(=O)C2C(=O)NC(=O)C1C2(c1ccccc1)c1ccc(Cl)cc1` (centres undefined), the TGI with XF 498 CNS, in the experiment with SNB-78 CNS and in the experiment with KM20L2 colon was greater than 100 µM in each case.

Consider `O=C(Cc1ccc(/C=C/C(=O)c2ncc[nH]2)cc1)Nc1ccc(Cl)cc1`, for which, in the experiment with PC-3 prostate, the GI50 was 2.39 µM and the TGI is 7.45 µM.

Regarding `NS(=O)(=O)c1ccc(-n2nc(-c3ccc(Br)cc3)ccc2=O)cc1`, in the experiment on PC-3 prostate, the GI50 is greater than 10 µM and the TGI is greater than 10 µM.

Take `CCOC(=O)c1cc(-c2ccc([N+](=O)[O-])cc2)n(-c2ccc(C(=O)O)c(O)c2)c1C`: in the experiment on PC-3 prostate, the GI50 was 2.96 µM and the TGI amounted to 18.8 µM.

Regarding `OC(c1cccc(C(F)(F)F)c1)c1cnccc1NC1CCCCCC1` (centres undefined), in the experiment on PC-3 prostate, the GI50 was 1.53 µM and the TGI was found to be 4.65 µM.

As to `O=C1/C(=C/c2ccccc2)CN(C(=O)Oc2ccc(Cl)cc2)C/C1=C\c1ccccc1`, the TGI with HOP-18 NSCLC was 36.6 µM; in the experiment on XF 498 CNS it was 5.71 µM; with SNB-78 CNS, greater than 26.8 µM; in the experiment with KM20L2 colon, 8.28 µM.

With `CN(C)c1ccc(/C=C2\C[N+](C)(C)C/C(=C\c3ccc(N(C)C)cc3)C2=O)cc1`, the TGI is greater than 100 µM with HOP-18 NSCLC, greater than 95.8 µM with SNB-78 CNS and 27.7 µM with KM20L2 colon.

The molecule `NC1(CCCCCCCCCCC(=O)O)CNCCNCCNCCNC1` yielded a TGI in the experiment on KM20L2 colon greater than 100 µM.

On to `CN(C)c1ccc2c(c1)oc(=O)c1ccccc12`, for which the values for the TGI in the experiment on MDA-N and with PC-3 prostate were 26.7 µM and 30.5 µM, respectively.

For the molecule `C[C@]12CCC(=O)C=C1CC[C@@H]1C2CC[C@]2(C)NC(=O)C(C#N)CC12` (some centres undefined), the TGI with XF 498 CNS, in the experiment with SNB-78 CNS and in the experiment with KM20L2 colon was greater than 100 µM each time.

Turning to `COc1cc2c(c(OC)c1OC)-c1ccc(NCc3ccccc3)c(=O)cc1[C@@H](NC(C)=O)CC2`, in the experiment with PC-3 prostate, the GI50 was 0.406 µM and the TGI amounted to 43.7 µM.

Turning to `COc1ccc(N=Cc2cc(OC)c(OC)c(OC)c2)cc1`, the TGI in the experiment with HOP-18 NSCLC, in the experiment with XF 498 CNS, in the experiment with SNB-78 CNS and in the experiment on KM20L2 colon was greater than 100 µM each time.

Take `ClCc1ccccc1CSc1ncnc2nc[nH]c12`: in the experiment on PC-3 prostate, the GI50 was greater than 60 µM and the TGI is greater than 60 µM.

On to `CCCCn1/c(=N/C(=S)N(C)C)ss/c1=N\C(=S)N(C)C`, for which the TGI with HOP-18 NSCLC, in the experiment with XF 498 CNS, in the experiment on SNB-78 CNS and with KM20L2 colon was greater than 100 µM each time.

As for `COc1ccc(CN2CCCC(C(=O)c3ccc(C(F)(F)F)cc3)C2)c(O)c1` (centres undefined), in the experiment on PC-3 prostate, the GI50 was 26.3 µM and the TGI was greater than 100 µM.

For `CCOC(=O)c1cnc2[nH]ccn2c1=O`, the TGI in the experiment with MDA-N and with PC-3 prostate was greater than 10 µM in each case.

For the molecule `CN(C)S(=O)(=O)Nc1ccccn1`, the TGI with MDA-N and with PC-3 prostate was greater than 100 µM in each case.

In the case of `CN1CN(c2ccccc2)C2(CCN(CCCC3(c4cccs4)OCCO3)CC2)C1=O`, the TGI in the experiment on MDA-N and in the experiment with PC-3 prostate was greater than 100 µM each time.

For `CCOC(=O)C(=O)N1C(C)=C(C(=O)OCC)CC(C(=O)OCC)=C1C`, the TGI with MDA-N and in the experiment on PC-3 prostate was greater than 100 µM each time.

Turning to `N#Cc1c(O)c2c(c(O)c1C#N)C(=O)c1ccccc1C2=O`, in the experiment with PC-3 prostate, the GI50 was 1.57 µM and the TGI worked out at 7.01 µM.

Regarding `O=[N+]([O-])c1ccc(NSc2ccccc2)cc1`, the TGI in the experiment with HOP-18 NSCLC is greater than 100 µM; in the experiment with XF 498 CNS, 95.3 µM; in the experiment on SNB-78 CNS, greater than 100 µM; in the experiment with KM20L2 colon it was greater than 100 µM.

In the case of `CCn1c(=O)c2c3cc(O)ccc3oc2c2ccc(O)cc21`, the TGI in the experiment with MDA-N and with PC-3 prostate was greater than 100 µM throughout.

As to `Cc1c(C(=O)/C=C/c2cccc3ccccc23)[n+](=O)c2ccccc2n1[O-]`, the TGI is 56.4 µM with RXF-631 renal, 28.6 µM with HOP-18 NSCLC, 47.8 µM in the experiment on SNB-78 CNS and 27.9 µM in the experiment with KM20L2 colon.
